Source: US20240415914A1, “Water Dispersible Cannabinoid Compositions” (priority 2021, published 2024)
Read-outs that look alike come from different tables or passages of the source.

Assays:
[1] = format: physicochemical; settings: for Stability in Powder Concentrate (content by LCMSMS): stored at room temperature (21-25° C.)
Protocol: At each time period, 0.05 g of powder was dissolved in 10 ml-15 of ethanol, diluted to fall within the analytical range, and injected into the LCMSMS for analysis.

[2] = Stability of cannabinoid and Vitamin E components of Beverage 2 (AB Red) stored at 8° C. and 21-25° C., LCMSMS over 570 days; settings: for Chemical stability over the entire period (result in words): AB Red
Protocol: The LCMSMS was calibrated for 0-50 ng/ml cannabinoids with the same resin material used in the preparation of the concentrates. At each time period, 100 μml of beverage was diluted with 10 ml of methanol and injected into the LCMSMS for analysis.

## CCCCCc1cc(O)c2c(c1)OC(C)(C)[C@@H]1CCC(C)=C[C@@H]21 [D9 THC, delta-9-tetrahydrocannabinol, reference compound]
[1]; powder concentrate, room temperature (21-25° C.), 570 days
  Chemical stability over the entire period (result in words): no significant degradation
[1]; day 0
  Stability in Powder Concentrate (content by LCMSMS): 2.55 mg/g powder
[1]; day 1
  Stability in Powder Concentrate (content by LCMSMS): 2.55 mg/g powder
[1]; day 2
  Stability in Powder Concentrate (content by LCMSMS): 2.46 mg/g powder
[1]; day 3
  Stability in Powder Concentrate (content by LCMSMS): 2.63 mg/g powder
[1]; day 5
  Stability in Powder Concentrate (content by LCMSMS): 2.66 mg/g powder
[1]; day 8
  Stability in Powder Concentrate (content by LCMSMS): 2.49 mg/g powder
[1]; day 9
  Stability in Powder Concentrate (content by LCMSMS): 2.49 mg/g powder
[1]; day 10
  Stability in Powder Concentrate (content by LCMSMS): 2.60 mg/g powder
[1]; day 11
  Stability in Powder Concentrate (content by LCMSMS): 2.58 mg/g powder
[1]; day 12
  Stability in Powder Concentrate (content by LCMSMS): 2.65 mg/g powder
[1]; day 15
  Stability in Powder Concentrate (content by LCMSMS): 2.49 mg/g powder
[1]; day 16
  Stability in Powder Concentrate (content by LCMSMS): 2.54 mg/g powder
[1]; day 17
  Stability in Powder Concentrate (content by LCMSMS): 2.54 mg/g powder
[1]; day 18
  Stability in Powder Concentrate (content by LCMSMS): 2.55 mg/g powder
[1]; day 19
  Stability in Powder Concentrate (content by LCMSMS): 2.51 mg/g powder
[1]; day 22
  Stability in Powder Concentrate (content by LCMSMS): 2.46 mg/g powder
[1]; day 23
  Stability in Powder Concentrate (content by LCMSMS): 2.65 mg/g powder
[1]; day 24
  Stability in Powder Concentrate (content by LCMSMS): 2.60 mg/g powder
[1]; day 25
  Stability in Powder Concentrate (content by LCMSMS): 2.55 mg/g powder
[1]; day 26
  Stability in Powder Concentrate (content by LCMSMS): 2.52 mg/g powder
[1]; day 29
  Stability in Powder Concentrate (content by LCMSMS): 2.47 mg/g powder
[1]; day 30
  Stability in Powder Concentrate (content by LCMSMS): 2.66 mg/g powder
[1]; day 60
  Stability in Powder Concentrate (content by LCMSMS): 2.66 mg/g powder
[1]; day 90
  Stability in Powder Concentrate (content by LCMSMS): 2.49 mg/g powder
[1]; day 120
  Stability in Powder Concentrate (content by LCMSMS): 2.66 mg/g powder
[1]; day 150
  Stability in Powder Concentrate (content by LCMSMS): 2.61 mg/g powder
[1]; day 180
  Stability in Powder Concentrate (content by LCMSMS): 2.59 mg/g powder
[1]; day 210
  Stability in Powder Concentrate (content by LCMSMS): 2.54 mg/g powder
[1]; day 240
  Stability in Powder Concentrate (content by LCMSMS): 2.53 mg/g powder
[1]; day 270
  Stability in Powder Concentrate (content by LCMSMS): 2.47 mg/g powder
[1]; day 300
  Stability in Powder Concentrate (content by LCMSMS): 2.57 mg/g powder
[1]; day 330
  Stability in Powder Concentrate (content by LCMSMS): 2.49 mg/g powder
[1]; day 360
  Stability in Powder Concentrate (content by LCMSMS): 2.58 mg/g powder
[1]; day 390
  Stability in Powder Concentrate (content by LCMSMS): 2.48 mg/g powder
[1]; day 420
  Stability in Powder Concentrate (content by LCMSMS): 2.53 mg/g powder
[1]; day 450
  Stability in Powder Concentrate (content by LCMSMS): 2.61 mg/g powder
[1]; day 480
  Stability in Powder Concentrate (content by LCMSMS): 2.65 mg/g powder
[1]; day 510
  Stability in Powder Concentrate (content by LCMSMS): 2.64 mg/g powder
[1]; day 540
  Stability in Powder Concentrate (content by LCMSMS): 2.47 mg/g powder
[1]; day 570
  Stability in Powder Concentrate (content by LCMSMS): 2.64 mg/g powder
[2]; 8° C., 0 days
  Stability of Cannabinoids in AB Red: 12.9 µg/mL
[2]; 8° C., 1 days
  Stability of Cannabinoids in AB Red: 13.0 µg/mL
[2]; 8° C., 2 days
  Stability of Cannabinoids in AB Red: 13.0 µg/mL
[2]; 8° C., 3 days
  Stability of Cannabinoids in AB Red: 12.7 µg/mL
[2]; 8° C., 5 days
  Stability of Cannabinoids in AB Red: 13.0 µg/mL
[2]; 8° C., 8 days
  Stability of Cannabinoids in AB Red: 12.6 µg/mL
[2]; 8° C., 9 days
  Stability of Cannabinoids in AB Red: 12.7 µg/mL
[2]; 8° C., 10 days
  Stability of Cannabinoids in AB Red: 12.8 µg/mL
[2]; 8° C., 11 days
  Stability of Cannabinoids in AB Red: 12.8 µg/mL
[2]; 8° C., 12 days
  Stability of Cannabinoids in AB Red: 12.9 µg/mL
[2]; 8° C., 15 days
  Stability of Cannabinoids in AB Red: 12.9 µg/mL
[2]; 8° C., 16 days
  Stability of Cannabinoids in AB Red: 12.7 µg/mL
[2]; 8° C., 17 days
  Stability of Cannabinoids in AB Red: 12.6 µg/mL
[2]; 8° C., 18 days
  Stability of Cannabinoids in AB Red: 12.8 µg/mL
[2]; 8° C., 19 days
  Stability of Cannabinoids in AB Red: 12.7 µg/mL
[2]; 8° C., 22 days
  Stability of Cannabinoids in AB Red: 12.7 µg/mL
[2]; 8° C., 23 days
  Stability of Cannabinoids in AB Red: 12.9 µg/mL
[2]; 8° C., 24 days
  Stability of Cannabinoids in AB Red: 12.9 µg/mL
[2]; 8° C., 25 days
  Stability of Cannabinoids in AB Red: 12.9 µg/mL
[2]; 8° C., 26 days
  Stability of Cannabinoids in AB Red: 12.7 µg/mL
[2]; 8° C., 29 days
  Stability of Cannabinoids in AB Red: 12.7 µg/mL
[2]; 8° C., 30 days
  Stability of Cannabinoids in AB Red: 12.9 µg/mL
[2]; 8° C., 60 days
  Stability of Cannabinoids in AB Red: 12.5 µg/mL
[2]; 8° C., 90 days
  Stability of Cannabinoids in AB Red: 13.0 µg/mL
[2]; 8° C., 120 days
  Stability of Cannabinoids in AB Red: 12.4 µg/mL
[2]; 8° C., 150 days
  Stability of Cannabinoids in AB Red: 12.8 µg/mL
[2]; 8° C., 180 days
  Stability of Cannabinoids in AB Red: 12.6 µg/mL
[2]; 8° C., 210 days
  Stability of Cannabinoids in AB Red: 12.3 µg/mL
[2]; 8° C., 240 days
  Stability of Cannabinoids in AB Red: 12.4 µg/mL
[2]; 8° C., 270 days
  Stability of Cannabinoids in AB Red: 12.6 µg/mL
[2]; 8° C., 300 days
  Stability of Cannabinoids in AB Red: 12.4 µg/mL
[2]; 8° C., 330 days
  Stability of Cannabinoids in AB Red: 12.7 µg/mL
[2]; 8° C., 390 days
  Stability of Cannabinoids in AB Red: 12.4 µg/mL
[2]; 8° C., 420 days
  Stability of Cannabinoids in AB Red: 12.4 µg/mL
[2]; 8° C., 450 days
  Stability of Cannabinoids in AB Red: 12.4 µg/mL
[2]; 8° C., 480 days
  Stability of Cannabinoids in AB Red: 12.2 µg/mL
[2]; 8° C., 510 days
  Stability of Cannabinoids in AB Red: 12.0 µg/mL
[2]; 8° C., 540 days
  Stability of Cannabinoids in AB Red: 11.9 µg/mL
[2]; 8° C., 570 days
  Stability of Cannabinoids in AB Red: 11.8 µg/mL
[2]; 21-25° C., 0 days
  Stability of Cannabinoids in AB Red: 12.9 µg/mL
[2]; 21-25° C., 1 days
  Stability of Cannabinoids in AB Red: 13.0 µg/mL
[2]; 21-25° C., 2 days
  Stability of Cannabinoids in AB Red: 13.0 µg/mL
[2]; 21-25° C., 3 days
  Stability of Cannabinoids in AB Red: 12.6 µg/mL
[2]; 21-25° C., 5 days
  Stability of Cannabinoids in AB Red: 12.4 µg/mL
[2]; 21-25° C., 8 days
  Stability of Cannabinoids in AB Red: 12.7 µg/mL
[2]; 21-25° C., 9 days
  Stability of Cannabinoids in AB Red: 12.8 µg/mL
[2]; 21-25° C., 10 days
  Stability of Cannabinoids in AB Red: 12.5 µg/mL
[2]; 21-25° C., 11 days
  Stability of Cannabinoids in AB Red: 12.9 µg/mL
[2]; 21-25° C., 12 days
  Stability of Cannabinoids in AB Red: 13.0 µg/mL
[2]; 21-25° C., 15 days
  Stability of Cannabinoids in AB Red: 12.7 µg/mL
[2]; 21-25° C., 16 days
  Stability of Cannabinoids in AB Red: 12.4 µg/mL
[2]; 21-25° C., 17 days
  Stability of Cannabinoids in AB Red: 12.9 µg/mL
[2]; 21-25° C., 18 days
  Stability of Cannabinoids in AB Red: 12.8 µg/mL
[2]; 21-25° C., 19 days
  Stability of Cannabinoids in AB Red: 12.8 µg/mL
[2]; 21-25° C., 22 days
  Stability of Cannabinoids in AB Red: 12.9 µg/mL
[2]; 21-25° C., 23 days
  Stability of Cannabinoids in AB Red: 12.9 µg/mL
[2]; 21-25° C., 24 days
  Stability of Cannabinoids in AB Red: 12.5 µg/mL
[2]; 21-25° C., 25 days
  Stability of Cannabinoids in AB Red: 12.5 µg/mL
[2]; 21-25° C., 26 days
  Stability of Cannabinoids in AB Red: 12.4 µg/mL
[2]; 21-25° C., 29 days
  Stability of Cannabinoids in AB Red: 12.7 µg/mL
[2]; 21-25° C., 30 days
  Stability of Cannabinoids in AB Red: 12.4 µg/mL
[2]; 21-25° C., 60 days
  Stability of Cannabinoids in AB Red: 12.2 µg/mL
[2]; 21-25° C., 90 days
  Stability of Cannabinoids in AB Red: 12.8 µg/mL
[2]; 21-25° C., 120 days
  Stability of Cannabinoids in AB Red: 12.4 µg/mL
[2]; 21-25° C., 150 days
  Stability of Cannabinoids in AB Red: 12.4 µg/mL
[2]; 21-25° C., 180 days
  Stability of Cannabinoids in AB Red: 12.8 µg/mL
[2]; 21-25° C., 210 days
  Stability of Cannabinoids in AB Red: 12.4 µg/mL
[2]; 21-25° C., 240 days
  Stability of Cannabinoids in AB Red: 12.5 µg/mL
[2]; 21-25° C., 270 days
  Stability of Cannabinoids in AB Red: 12.5 µg/mL
[2]; 21-25° C., 300 days
  Stability of Cannabinoids in AB Red: 12.4 µg/mL
[2]; 21-25° C., 330 days
  Stability of Cannabinoids in AB Red: 12.1 µg/mL
[2]; 21-25° C., 390 days
  Stability of Cannabinoids in AB Red: 12.1 µg/mL
[2]; 21-25° C., 420 days
  Stability of Cannabinoids in AB Red: 12.2 µg/mL
[2]; 21-25° C., 450 days
  Stability of Cannabinoids in AB Red: 12.2 µg/mL
[2]; 21-25° C., 480 days
  Stability of Cannabinoids in AB Red: 11.8 µg/mL
[2]; 21-25° C., 510 days
  Stability of Cannabinoids in AB Red: 12.3 µg/mL
[2]; 21-25° C., 540 days
  Stability of Cannabinoids in AB Red: 12.2 µg/mL
[2]; 21-25° C., 570 days
  Stability of Cannabinoids in AB Red: 11.8 µg/mL
[2]; stored at 8° C., 570 days
  Chemical stability over the entire period (result in words): high degree of stability
[2]; stored at 21-25° C., 570 days
  Chemical stability over the entire period (result in words): high degree of stability
